{"source": "ChEMBL document CHEMBL1201862", "about": "“PubChem BioAssay data set” (2004)", "assay_in_all_cases": "DTP human tumour cell line panel, 48 h", "key": {"SF-295": {"system": "SF-295"}, "SF-539": {"system": "SF-539"}, "PC-3": {"system": "PC-3"}, "HCT-116": {"system": "HCT-116"}, "SK-OV-3": {"system": "SK-OV-3"}, "SK-MEL-28": {"system": "SK-MEL-28"}, "HL-60": {"system": "HL-60"}, "Malme-3M": {"system": "Malme-3M"}, "SW-620": {"system": "SW-620"}, "MDA-N": {"system": "MDA-N"}, "SNB-75": {"system": "SNB-75"}, "UACC-257": {"system": "UACC-257"}, "HOP-62": {"system": "HOP-62"}, "SNB-19": {"system": "SNB-19"}, "NCI-H460": {"system": "NCI-H460"}, "NCI/ADR-RES": {"system": "NCI/ADR-RES"}}, "note": "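Step 1: Grow cells in 96-well plates. Step 2: Expose to compound for 48 hours at 5 concentrations. Step 3: Interpolate endpoints linearly; if unreached, use highest concentration. GI50: concentration for 50% inhibition of growth.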 Active and inactive are the calls of the source. Rule as the data show it: active = GI50 up to about 1.1 µM and inactive = higher.", "data": [{"smiles": "CCOc1ccccc1-c1nc2c(s1)C(=O)c1ccccc1C2=O", "values": [{"measurement": "GI50", "setting": "SF-295", "value": "12.6 µM (inactive)"}, {"measurement": "GI50", "setting": "SF-539", "value": "16.4 µM (inactive)"}, {"measurement": "GI50", "setting": "PC-3", "value": "12 µM (inactive)"}, {"measurement": "GI50", "setting": "HCT-116", "value": "15.2 µM (inactive)"}, {"measurement": "GI50", "setting": "SK-OV-3", "value": "15 µM (inactive)"}, {"measurement": "GI50", "setting": "SK-MEL-28", "value": "16.7 µM (inactive)"}, {"measurement": "GI50", "setting": "HL-60", "value": "1.92 µM (inactive)"}, {"measurement": "GI50", "setting": "Malme-3M", "value": "3.68 µM (inactive)"}, {"measurement": "GI50", "setting": "SW-620", "value": "8 µM (inactive)"}, {"measurement": "GI50", "setting": "MDA-N", "value": "2.72 µM (inactive)"}, {"measurement": "GI50", "setting": "SNB-75", "value": "11.4 µM (inactive)"}, {"measurement": "GI50", "setting": "UACC-257", "value": "12.9 µM (inactive)"}, {"measurement": "GI50", "setting": "HOP-62", "value": "15.4 µM (inactive)"}, {"measurement": "GI50", "setting": "SNB-19", "value": "25.8 µM (inactive)"}, {"measurement": "GI50", "setting": "NCI-H460", "value": "18.7 µM (inactive)"}]}, {"smiles": "O=c1[nH]nc(Cc2ccccc2)n1O", "values": [{"measurement": "GI50", "setting": "SF-295", "value": "> 100 µM (inactive)"}, {"measurement": "GI50", "setting": "SF-539", "value": "> 100 µM (inactive)"}, {"measurement": "GI50", "setting": "HCT-116", "value": "> 100 µM (inactive)"}, {"measurement": "GI50", "setting": "SK-OV-3", "value": "> 100 µM (inactive)"}, {"measurement": "GI50", "setting": "SK-MEL-28", "value": "> 100 µM (inactive)"}, {"measurement": "GI50", "setting": "NCI/ADR-RES", "value": "> 100 µM (inactive)"}, {"measurement": "GI50", "setting": "HL-60", "value": "> 100 µM (inactive)"}, {"measurement": "GI50", "setting": "Malme-3M", "value": "> 100 µM (inactive)"}, {"measurement": "GI50", "setting": "SW-620", "value": "> 100 µM (inactive)"}, {"measurement": "GI50", "setting": "MDA-N", "value": "> 100 µM (inactive)"}, {"measurement": "GI50", "setting": "UACC-257", "value": "> 100 µM (inactive)"}, {"measurement": "GI50", "setting": "HOP-62", "value": "> 100 µM (inactive)"}, {"measurement": "GI50", "setting": "SNB-19", "value": "> 100 µM (inactive)"}]}, {"smiles": "COc1cccc2c1-c1c(OC)cccc1SS2", "values": [{"measurement": "GI50", "setting": "SF-295", "value": "19.9 µM (inactive)"}, {"measurement": "GI50", "setting": "SF-539", "value": "17.7 µM (inactive)"}, {"measurement": "GI50", "setting": "PC-3", "value": "32.5 µM (inactive)"}, {"measurement": "GI50", "setting": "HCT-116", "value": "18.2 µM (inactive)"}, {"measurement": "GI50", "setting": "SK-MEL-28", "value": "16.8 µM (inactive)"}, {"measurement": "GI50", "setting": "NCI/ADR-RES", "value": "36.6 µM (inactive)"}, {"measurement": "GI50", "setting": "HL-60", "value": "1.01 µM (active)"}, {"measurement": "GI50", "setting": "Malme-3M", "value": "18.1 µM (inactive)"}, {"measurement": "GI50", "setting": "SW-620", "value": "20.4 µM (inactive)"}, {"measurement": "GI50", "setting": "MDA-N", "value": "2.67 µM (inactive)"}, {"measurement": "GI50", "setting": "UACC-257", "value": "11.6 µM (inactive)"}, {"measurement": "GI50", "setting": "HOP-62", "value": "47.2 µM (inactive)"}, {"measurement": "GI50", "setting": "SNB-19", "value": "24.8 µM (inactive)"}, {"measurement": "GI50", "setting": "NCI-H460", "value": "18.2 µM (inactive)"}]}, {"smiles": "O=C(/C=C\\c1ccccc1-c1ccccc1)c1ccccc1", "values": [{"measurement": "GI50", "setting": "SF-295", "value": "> 100 µM (inactive)"}, {"measurement": "GI50", "setting": "SF-539", "value": "> 100 µM (inactive)"}, {"measurement": "GI50", "setting": "HCT-116", "value": "66.5 µM (inactive)"}, {"measurement": "GI50", "setting": "SK-OV-3", "value": "> 100 µM (inactive)"}, {"measurement": "GI50", "setting": "NCI/ADR-RES", "value": "> 100 µM (inactive)"}, {"measurement": "GI50", "setting": "HL-60", "value": "60.4 µM (inactive)"}, {"measurement": "GI50", "setting": "SW-620", "value": "> 100 µM (inactive)"}, {"measurement": "GI50", "setting": "MDA-N", "value": "> 100 µM (inactive)"}, {"measurement": "GI50", "setting": "SNB-75", "value": "61.8 µM (inactive)"}, {"measurement": "GI50", "setting": "UACC-257", "value": "> 100 µM (inactive)"}, {"measurement": "GI50", "setting": "HOP-62", "value": "> 100 µM (inactive)"}, {"measurement": "GI50", "setting": "NCI-H460", "value": "> 100 µM (inactive)"}]}, {"smiles": "COc1cc2c(cc1O)C1Cc3ccc(OC)c(O)c3C(C2)N1C", "note": "(centres undefined)", "values": [{"measurement": "GI50", "setting": "SF-295", "value": "> 100 µM (inactive)"}, {"measurement": "GI50", "setting": "SF-539", "value": "> 100 µM (inactive)"}, {"measurement": "GI50", "setting": "PC-3", "value": "90.8 µM (inactive)"}, {"measurement": "GI50", "setting": "HCT-116", "value": "> 100 µM (inactive)"}, {"measurement": "GI50", "setting": "SK-OV-3", "value": "> 100 µM (inactive)"}, {"measurement": "GI50", "setting": "SK-MEL-28", "value": "> 100 µM (inactive)"}, {"measurement": "GI50", "setting": "NCI/ADR-RES", "value": "> 100 µM (inactive)"}, {"measurement": "GI50", "setting": "HL-60", "value": "> 100 µM (inactive)"}, {"measurement": "GI50", "setting": "Malme-3M", "value": "> 100 µM (inactive)"}, {"measurement": "GI50", "setting": "SW-620", "value": "> 100 µM (inactive)"}, {"measurement": "GI50", "setting": "MDA-N", "value": "> 100 µM (inactive)"}, {"measurement": "GI50", "setting": "UACC-257", "value": "> 100 µM (inactive)"}, {"measurement": "GI50", "setting": "HOP-62", "value": "92.9 µM (inactive)"}, {"measurement": "GI50", "setting": "SNB-19", "value": "> 100 µM (inactive)"}, {"measurement": "GI50", "setting": "NCI-H460", "value": "94 µM (inactive)"}]}, {"smiles": "c1csc(-c2sc(-c3ccsc3)cc2Cc2ccsc2)c1", "values": [{"measurement": "GI50", "setting": "SF-295", "value": "> 10 µM (inactive)"}, {"measurement": "GI50", "setting": "PC-3", "value": "> 10 µM (inactive)"}, {"measurement": "GI50", "setting": "SK-OV-3", "value": "> 10 µM (inactive)"}, {"measurement": "GI50", "setting": "SK-MEL-28", "value": "> 10 µM (inactive)"}, {"measurement": "GI50", "setting": "HL-60", "value": "> 10 µM (inactive)"}, {"measurement": "GI50", "setting": "Malme-3M", "value": "> 10 µM (inactive)"}, {"measurement": "GI50", "setting": "SW-620", "value": "> 10 µM (inactive)"}, {"measurement": "GI50", "setting": "MDA-N", "value": "> 10 µM (inactive)"}, {"measurement": "GI50", "setting": "SNB-75", "value": "> 10 µM (inactive)"}, {"measurement": "GI50", "setting": "UACC-257", "value": "> 10 µM (inactive)"}, {"measurement": "GI50", "setting": "HOP-62", "value": "> 10 µM (inactive)"}]}, {"smiles": "COc1ccc(/C=N/N=C(\\N)NO)c(OC)c1OC", "values": [{"measurement": "GI50", "setting": "SF-295", "value": "31.6 µM (inactive)"}, {"measurement": "GI50", "setting": "SF-539", "value": "25.2 µM (inactive)"}, {"measurement": "GI50", "setting": "PC-3", "value": "36.3 µM (inactive)"}, {"measurement": "GI50", "setting": "HCT-116", "value": "20.1 µM (inactive)"}, {"measurement": "GI50", "setting": "SK-OV-3", "value": "51.4 µM (inactive)"}, {"measurement": "GI50", "setting": "SK-MEL-28", "value": "> 100 µM (inactive)"}, {"measurement": "GI50", "setting": "NCI/ADR-RES", "value": "14 µM (inactive)"}, {"measurement": "GI50", "setting": "HL-60", "value": "23.1 µM (inactive)"}, {"measurement": "GI50", "setting": "Malme-3M", "value": "26.5 µM (inactive)"}, {"measurement": "GI50", "setting": "SW-620", "value": "46.2 µM (inactive)"}, {"measurement": "GI50", "setting": "MDA-N", "value": "66.5 µM (inactive)"}, {"measurement": "GI50", "setting": "HOP-62", "value": "32.7 µM (inactive)"}, {"measurement": "GI50", "setting": "SNB-19", "value": "> 100 µM (inactive)"}, {"measurement": "GI50", "setting": "NCI-H460", "value": "33 µM (inactive)"}]}]}
